This note sets out measurements from PMC4787783 (2015).

The test system of experiment [1] is 3-WJ (RNA, junction) AGCGCAACCCC/UCGUCAGCU/GGGACGACGU
Kind of experiment: fluorescence enhancement. The conditions noted are these: 40 mM K+; 20 mM Tris-HCl pH 7.0; 2 µM CyT, 4 µM RNA; very weak fluorescence.

Experiment [2] deals with Bulges-TB1 (RNA, G4) UUGUGGUGGGUGGGUGGGU
Kind of experiment: fluorescence enhancement.

The subject of experiment [3] is VEGF (RNA, G4) GGAGGAGGGGGAGGAGGA
The experiment in a line: fluorescence titration, 1:1 fit. Conditions: 40 mM K+; 20 mM Tris-HCl pH 7.0, 25 °C; 2 µM CyT.

Experiment [4] deals with Tel22 (RNA, G4) AGGGUUAGGGUUAGGGUUAGGG
Kind of experiment: fluorescence titration, 1:1 fit. The conditions noted are these: 40 mM K+; 20 mM Tris-HCl pH 7.0, 25 °C; 2 µM CyT.

The subject of experiment [5] is Spinach (RNA, aptamer) GCAGCCGGCUUGUUGAGUAGAGUGUGAGCUCCGUAACUGGUCGCGUC/GACGCGACCGAAUGAAAUGGUGAAGGACGGGUCCAGCCGGCUGC
The experiment in a line: fluorescence enhancement.

For experiment [6], the system named is 4-WJ (RNA, junction) GCGC/UUUAGC/GAGGUCCU/AGAA. The experiment in a line: fluorescence enhancement. The conditions noted are these: 40 mM K+; 20 mM Tris-HCl pH 7.0; 2 µM CyT, 4 µM RNA; very weak fluorescence.
For experiment [7], the system named is NRAS (RNA, G4) GGGAGGGGCGGGUCUGGG
The experiment in a line: fluorescence titration, 1:1 fit. Conditions: 40 mM K+; 20 mM Tris-HCl pH 7.0, 25 °C; 2 µM CyT.

Experiment [8] has as its system NRAS-mut (RNA, single strand) GUGAGUUGCGUGUCUGUG
Kind of experiment: fluorescence enhancement. Conditions: 40 mM K+; 20 mM Tris-HCl pH 7.0; 2 µM CyT, 4 µM RNA; very weak fluorescence.

Experiment [9] relates to BCL-2 (RNA, G4) AGGGGGCCGUGGGGUGGGAGCUGGGG
The experiment in a line: fluorescence titration, 1:1 fit. Conditions: 40 mM K+; 20 mM Tris-HCl pH 7.0, 25 °C; 2 µM CyT.

Experiment [10] concerns TRF2 (RNA, G4) CGGGAGGGCGGGGAGGGC
Kind of experiment: fluorescence titration, 1:1 fit. Conditions: 40 mM K+; 20 mM Tris-HCl pH 7.0, 25 °C; 2 µM CyT.

The subject of experiment [11] is ssAf17 (RNA, single strand) CUGAGUUGUAUAUAUUCG
The experiment in a line: fluorescence titration, 1:1 fit. The conditions noted are these: 40 mM K+; 20 mM Tris-HCl pH 7.0, 25 °C; 2 µM CyT.

Experiment [12] deals with dsNC (RNA, duplex) UUGUGCUACCAGGAGUCUG/CAGACUCCUGGUAGCACAA
The experiment in a line: fluorescence titration, 1:1 fit. Conditions: 40 mM K+; 20 mM Tris-HCl pH 7.0, 25 °C; 2 µM CyT.

The test system of experiment [13] is tRNA-Ala fragment (RNA, G4) GGGGGUGUAGCUCAGUGGUAGAGCGCGUGC
Kind of experiment: fluorescence enhancement.

Experiment [14] deals with ssAf22 (RNA, single strand) UGAGCUUAAUUGUAUAUAUUCG
The experiment in a line: fluorescence titration, 1:1 fit. Conditions: 40 mM K+; 20 mM Tris-HCl pH 7.0, 25 °C; 2 µM CyT.

In experiment [15] the test system is HP18 (HP-18) (RNA, hairpin) CAGUACAGAUCUGUACUG
Kind of experiment: fluorescence titration, 1:1 fit. The conditions noted are these: 40 mM K+; 20 mM Tris-HCl pH 7.0, 25 °C; 2 µM CyT.

Experiment [16] concerns Tel22-mut (RNA, single strand) AGUGUUAGUGUUAGUGUUAGUG
The experiment in a line: fluorescence enhancement. Conditions: 40 mM K+; 20 mM Tris-HCl pH 7.0; 2 µM CyT, 4 µM RNA; very weak fluorescence.

The subject of experiment [17] is tRNA-Cys fragment (RNA, G4) GGGGGUAUAGCUCAGUGGUAGAGCAUUUGA
Kind of experiment: fluorescence enhancement.

In experiment [18] the test system is VEGF (RNA, G4) GGAGGAGGGGGAGGAGGA
The experiment in a line: fluorescence enhancement. Conditions: about 200-fold enhancement.

Experiment [19] has as its system Tel22 (RNA, G4) AGGGUUAGGGUUAGGGUUAGGG
Kind of experiment: fluorescence enhancement. The conditions noted are these: about 290-fold enhancement.

Experiment [20] deals with ssAf17 (RNA, single strand) CUGAGUUGUAUAUAUUCG
The experiment in a line: fluorescence enhancement. The conditions noted are these: about 100-fold enhancement.

Experiment [21] relates to HP18 (HP-18) (RNA, hairpin) CAGUACAGAUCUGUACUG
Kind of experiment: fluorescence enhancement. Conditions: about 330-fold enhancement.

As to `CC(=Cc1sc2ccc3ccccc3c2[n+]1CCCS(=O)(=O)[O-])C=C1Sc2ccc3ccccc3c2N1CCCS(=O)(=O)O`, the binding result in experiment [1] was “weak”; in experiment [2] (40 mM K+, 20 mM Tris-HCl pH 7.0, 2 µM CyT, 4 µM RNA, about 1800-fold enhancement), “yes”; in experiment [5] (40 mM K+, 20 mM Tris-HCl pH 7.0, 2 µM CyT, 4 µM RNA, about 327-fold enhancement), “yes”; in [6] it was “weak”; in experiment [8], “weak”; in [13] (40 mM K+, 20 mM Tris-HCl pH 7.0, 2 µM CyT, 4 µM RNA, about 200-fold enhancement), “yes”. In addition, the binding entry in experiment [16] was “weak”; in experiment [17] (40 mM K+, 20 mM Tris-HCl pH 7.0, 2 µM CyT, 4 µM RNA, about 205-fold enhancement) it was “yes”. Also, the binding constant entry in experiment [3] is “(1.44 ± 0.29) × 10^5 M^-1”; in [4], “(1.17 ± 0.37) × 10^5 M^-1”; in experiment [7], “(3.49 ± 0.77) × 10^5 M^-1”; in experiment [9], “(1.94 ± 0.29) × 10^5 M^-1”; in experiment [10] it was “(2.81 ± 0.63) × 10^5 M^-1”; in experiment [11] it was “(4.40 ± 0.38) × 10^4 M^-1”. In addition, the binding constant result is on record as “(2.42 ± 0.25) × 10^4 M^-1” in [12], “(4.03 ± 0.36) × 10^4 M^-1” in experiment [14] and “(2.89 ± 0.28) × 10^4 M^-1” in [15].

`CN1C(=Cc2cc[n+](C)c3ccccc23)Sc2ccccc21`: the binding entry in [18], in experiment [19], in experiment [2] (about 570-fold enhancement), in experiment [20], in experiment [5] (about 200-fold enhancement) and in experiment [21] was “yes” each time. Moreover, the binding result in [13] (about 230-fold enhancement) and in experiment [17] (about 150-fold enhancement) was “yes” each time.
